{"source": "paper PMC7156724", "about": "“Potent BRD4 inhibitor suppresses cancer cell-macrophage interaction” (Nature Communications, 2020)", "key": {"ES-2 cells": {"system": "ES-2 cells", "assay": "MTT cell growth assay, ES-2", "assay_type": "cell-based, human", "details": "5 days", "description": "Fig. 2 NHWD-870 inhibited BRD4 phosphorylation and c-MYC expression, and suppressed cell growth. a Representative western blot analysis of p-BRD4 (s484/488), BRD4, c-MYC, and GAPDH after treatment of MDA-MB231, SUM159, A2780 ES-2, and H526 cells with JQ-1 or NHWD-870 at the indicated concentrations for 24 h. GAPDH served as the loading control. Selected from three independent experiments. b MTT assays of H526, A2780, ES-2, and MDA-MB231 cells treated with JQ-1 or NHWD-870 at the indicated concentrations for 5 days. Data are presented as mean ± SEM from three independent experiments. c, d Clonogenic assays of H526, A2780, ES-2 and MDA-MB231 cells treated with 250 nM JQ-1 or NHWD-870 for 5 days. Shown are representative images (c) and quantification of colonies (d). […] Shown are representative images (e) and quantification of relative colony sizes (f). Scale bar, 50 μm. Data are presented as mean ± SEM from five independent experiments. p values were calculated using two-tailed, unpaired t tests in this figure. **p < 0.01; ***p < 0.001. Source data are provided as a Source Data file.\n37℃, 5% CO2. […]"}, "HIF1α protein": {"system": "HIF1α protein", "assay": "Western blot of HIF1α in A375 and A2780 cells at 20% or 1% O2", "assay_type": "cell-based, human", "details": "25 nM, 20% or 1% O2, 24 h", "description": "Fig. 7 NHWD-870 inhibited CSF1 expression through suppressing BRD4 and HIF1α in tumor cells. a, b Representative western blot analysis of control (Ctrl) and BRD4 knockout (KO) A375 and A2780 cells exposed to 20% or 1% O2 for 24 hours. Selected from three independent experiments. c, d Representative western blot analysis of A375 and A2780 cells treated with DMSO or 25 nM NHWD-870 and exposed to 20% or 1% O2 for 24 h. Selected from three independent experiments. e Relative HIF1 luciferase reporter activity in control (Ctrl), BRD4 knockout (KO), or NHWD-870 treated A375 and A2780 cells exposed to 20% or 1% O2 for 24 h. […] NHWD-870 inhibits the proliferation and survival of TAMs partly by inhibiting BRD4 activity, HIF1α expression, and CSF1 secretion by tumor cells, and downregulating CSF1R mediated ERK and PI3K/AKT signaling in TAMs. p values were calculated using two-tailed, unpaired t tests in this figure. *p < 0.05; **p < 0.01; ***p < 0.001. […]\nof treatment, 10 μl AlamarBlue reagent (0.3 mg/ml) was added to each well, and after 18h, the florescence intensity in each well was measured using a top-reading fluorescent plate reader with excitation at 530 nm and emission at 590 nm.\n4. […] Supernatants were collected and determined with a Bradford Protein Assay kit (Bio-Rad, Hercules, CA). […]\nevery week. […] Colony numbers were calculated with imageJ version"}}, "note": "“And” between values parts separate entries of the source, which are not always exact repeats. Equal entries are not always repeated."}
{"smiles": "Cc1nnn(C)c1-c1cnc2c3c4cnn(C)c4ccc3n([C@H](c3ccccc3)C3CCOCC3)c2c1", "note": "[NHWD-870]", "values": [{"measurement": "MTT assay, relative cell number", "setting": "ES-2 cells; ES-2, 0.1 nM", "result": "0.993 and 0.983 and 0.961"}, {"measurement": "MTT assay, relative cell number", "setting": "ES-2 cells; ES-2, 1 nM", "result": "0.911 and 0.921 and 0.934"}, {"measurement": "MTT assay, relative cell number", "setting": "ES-2 cells; ES-2, 10 nM", "result": "0.355 and 0.301 and 0.382"}, {"measurement": "MTT assay, relative cell number", "setting": "ES-2 cells; ES-2, 500 nM", "result": 0}, {"measurement": "MTT assay, relative cell number", "setting": "ES-2 cells; ES-2, 1000 nM", "result": 0}, {"measurement": "MTT assay, relative cell number", "setting": "ES-2 cells; ES-2, 5000 nM", "result": 0}, {"measurement": "MTT assay, relative cell number", "setting": "ES-2 cells; ES-2, 10000 nM", "result": 0}, {"measurement": "HIF1α protein (western blot)", "setting": "HIF1α protein", "result": "decreased HIF1α protein"}]}
